target: PIK3CA (human) (UniProt P42336); assay: Assessment of PIK3CA Kinase Activity
Sequence (P42336 whole entry, looked up): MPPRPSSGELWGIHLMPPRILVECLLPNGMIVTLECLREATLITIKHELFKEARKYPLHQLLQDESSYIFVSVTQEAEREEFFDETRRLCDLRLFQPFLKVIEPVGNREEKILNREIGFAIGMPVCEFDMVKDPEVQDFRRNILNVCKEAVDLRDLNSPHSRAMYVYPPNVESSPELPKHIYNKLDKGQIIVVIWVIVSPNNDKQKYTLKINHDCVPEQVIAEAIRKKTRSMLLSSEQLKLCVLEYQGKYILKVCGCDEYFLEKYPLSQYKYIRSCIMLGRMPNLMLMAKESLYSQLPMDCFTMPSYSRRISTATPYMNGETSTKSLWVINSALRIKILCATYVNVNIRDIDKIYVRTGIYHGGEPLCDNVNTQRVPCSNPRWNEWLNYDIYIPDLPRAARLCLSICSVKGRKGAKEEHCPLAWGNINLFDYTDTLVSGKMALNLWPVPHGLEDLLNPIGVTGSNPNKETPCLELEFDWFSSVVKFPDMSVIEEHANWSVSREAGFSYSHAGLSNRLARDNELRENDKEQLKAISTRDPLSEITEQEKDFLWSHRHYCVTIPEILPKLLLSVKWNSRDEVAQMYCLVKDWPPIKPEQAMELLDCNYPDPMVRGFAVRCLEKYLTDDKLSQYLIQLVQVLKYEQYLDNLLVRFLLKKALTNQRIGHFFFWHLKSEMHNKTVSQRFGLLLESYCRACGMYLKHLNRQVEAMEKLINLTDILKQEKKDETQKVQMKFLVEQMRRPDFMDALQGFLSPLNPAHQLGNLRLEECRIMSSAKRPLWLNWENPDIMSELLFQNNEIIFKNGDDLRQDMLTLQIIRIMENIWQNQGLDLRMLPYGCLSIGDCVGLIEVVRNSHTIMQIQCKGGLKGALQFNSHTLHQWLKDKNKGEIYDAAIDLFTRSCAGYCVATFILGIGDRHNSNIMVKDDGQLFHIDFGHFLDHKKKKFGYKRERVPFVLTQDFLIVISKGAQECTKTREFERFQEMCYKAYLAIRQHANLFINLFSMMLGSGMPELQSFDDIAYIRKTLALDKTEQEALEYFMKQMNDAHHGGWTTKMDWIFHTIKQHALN

Row | SMILES | IC50
1 | CC(C)n1ncnc1-c1nc2c(s1)CCOc1ccc(C3CN(CCO)C3)cc1-2 | < 1 µM
2 | Nc1ccc2c(n1)-c1sc(-c3ncnn3-c3ccc(F)cc3F)cc1CCO2 | < 1 µM
3 | CC(C)n1ncnc1-c1nc2c(s1)CCOc1cc(C3CN(CCS(=O)(=O)N(C)C)C3)ccc1-2 | < 1 µM
4 | COCCN(C)C(=O)c1nc2c(s1)CCOc1cc(-c3cn[nH]c3)ccc1-2 | < 1 µM
5 | CC(C)N(CCO)C(=O)c1nc2c(s1)CCOc1ccc(-c3cnc(N)nc3)cc1-2 | < 1 µM
6 | CC(C)n1nc(N)nc1-c1nc2c(s1)CCOc1cc(C(=O)NC3CN(C)C3)ccc1-2 | < 1 µM
7 | CC(CO)Nc1ccc2c(n1)-c1sc(-c3ncnn3-c3ccc(F)cc3F)cc1CCO2 (stereo unspecified) | < 1 µM
8 | O=C(c1nc2c(s1)CCOc1cc(-c3cn[nH]c3)ccc1-2)N1CC[C@@H](C(F)(F)F)C1 | < 1 µM
9 | CC(C)(C(=O)O)n1cc(-c2ccc3c(c2)OCCc2sc(-c4ncnn4CC(F)(F)F)nc2-3)cn1 | < 1 µM
10 | CC1(C)C(=O)NC(=O)N1c1nc2c(s1)CCOc1cc(C3CCNCC3)ccc1-2 | < 1 µM
11 | CC(C)n1ncnc1-c1nc2c(s1)CCOc1cc(C3CN(C(=O)[C@@H](C)O)C3)ccc1-2 | < 1 µM
12 | Fc1ccc(-n2ncnc2-c2cc3c(s2)-c2nc(N4CCCNCC4)ccc2OCC3)c(F)c1 | < 1 µM
13 | CC(C)(O)Cn1cc(-c2ccc3c(c2)OCCc2sc(-c4ncnn4Cc4ccncc4)nc2-3)cn1 | < 1 µM
14 | CC(O)C(=O)N1CC(n2ccnc2-c2nc3c(s2)CCOc2cc(-c4cnn(CC(C)(C)O)c4)ccc2-3)C1 (stereo unspecified) | < 1 µM
15 | OCCn1cc(-c2ccc3c(c2)OCCc2sc(-c4ncnn4CC(F)(F)F)nc2-3)cn1 | < 1 µM
16 | O=C(c1nc2c(s1)CCOc1cc(-c3cn[nH]c3)ccc1-2)N1CCCC1 | < 1 µM
17 | CC(=O)N1CC(n2ccnc2-c2nc3c(s2)CCOc2cc(-c4cnn(CC(C)(C)O)c4)ccc2-3)C1 | < 1 µM
18 | CN(C)C(=O)Cn1cc(-c2ccc3c(c2)OCCc2sc(-c4ncnn4CC(F)(F)F)nc2-3)cn1 | < 1 µM
19 | CC(=O)N(C)[C@@H]1CCN(C(=O)c2nc3c(s2)CCOc2cc(-c4cn[nH]c4)ccc2-3)C1 | < 1 µM
20 | CC(C)n1ncnc1-c1nc2c(s1)CCOc1cc(C3CCN(CCS(C)(=O)=O)CC3)ccc1-2 | < 1 µM
21 | Cc1cc(-c2ccc3c(n2)-c2sc(-c4ncnn4-c4ccc(F)cc4F)cc2CCO3)cnc1F | < 1 µM
22 | CNC(=O)c1ccc2c(c1)OCCc1cc(C(=O)N(C)c3cc(C(=O)NC[C@H](C)O)ccc3Cl)sc1-2 | < 1 µM
23 | CC(C)n1ncnc1-c1nc2c(s1)CCOc1cc(C3CN(CC(=O)N4CCOCC4)C3)ccc1-2 | < 1 µM

Row | SMILES | IC50
24 | CC(C)n1ncnc1-c1nc2c(s1)CCOc1cc(C3(F)CCN(CC(=O)N(C)C)CC3)ccc1-2 | < 1 µM
25 | CN1CCC(n2ncnc2-c2nc3c(s2)CCOc2cc(-c4cnn(CC(C)(C)O)c4)ccc2-3)CC1 | < 1 µM
26 | CC(C)n1ncnc1-c1nc2c(s1)CCOc1cc(C3CN(C(=O)[C@H](C)O)C3)ccc1-2 | < 1 µM
27 | Fc1ccc(-n2ncnc2-c2cc3c(s2)-c2ccc(C4CNC4)cc2OCC3)c(F)c1 | < 1 µM
28 | CC(C)(O)Cn1cc(-c2ccc3c(c2)OCCc2sc(-c4nccn4C4CNC4)nc2-3)cn1 | < 1 µM
29 | CC(C)n1ncnc1-c1nc2c(s1)CCOc1cc(C3CCN(CC(=O)N(C)C)CC3)ccc1-2 | < 1 µM
30 | CC(C)n1nc(N)nc1-c1nc2c(s1)CCOc1cc(-c3cnn(CC4(C)COC4)c3)ccc1-2 | < 1 µM
31 | CN1CCN(c2ccc3c(n2)-c2sc(-c4ncnn4-c4ccc(F)cc4F)cc2CCO3)CC1 | < 1 µM
32 | CC(C)(O)Cn1cc(-c2ccc3c(c2)OCCc2sc(-c4nc(N)nn4-c4ccc(F)cc4F)nc2-3)cn1 | < 1 µM
33 | OCC(O)CNc1ccc2c(n1)-c1sc(-c3ncnn3-c3ccc(F)cc3F)cc1CCO2 (stereo unspecified) | < 1 µM
34 | N#CC1CCN(C(=O)c2nc3c(s2)CCOc2cc(-c4cn[nH]c4)ccc2-3)CC1 | < 1 µM
35 | CC(C)n1ncnc1-c1nc2c(s1)CCOc1cc(CNc3ccon3)ccc1-2 | < 1 µM
36 | OCCn1cc(-c2ccc3c(c2)OCCc2sc(-c4ncnn4Cc4ccncc4)nc2-3)cn1 | < 1 µM
37 | CN(C)C(=O)c1nc2c(s1)CCOc1cc(-c3cn[nH]c3)ccc1-2 | < 1 µM
38 | CC(C)n1ncnc1-c1nc2c(s1)CCOc1cc(C3CN(CC(N)=O)C3)ccc1-2 | < 1 µM
39 | C[C@@H]1CCN(C(=O)c2nc3c(s2)CCOc2cc(-c4cn[nH]c4)ccc2-3)C1 | < 1 µM
40 | CC(=O)N1CC(Nc2ccc3c(n2)-c2sc(-c4ncnn4-c4ccc(F)cc4F)cc2CCO3)C1 | < 1 µM
41 | Cc1nc(-c2nc3c(s2)CCOc2cc(C4CN(CCO)C4)ccc2-3)n(C(C)C)n1 | < 1 µM
42 | CC(C)n1ncnc1-c1nc2c(s1)CCOc1ccc(-c3ccc(=O)n(C)c3)cc1-2 | < 1 µM
43 | CN(C)c1ccc(-c2ccc3c(n2)-c2sc(-c4ncnn4-c4ccc(F)cc4F)cc2CCO3)cn1 | < 1 µM
44 | COCCNc1ccc(-c2ccc3c(n2)-c2sc(-c4ncnn4-c4ccc(F)cc4F)cc2CCO3)cn1 | < 1 µM
45 | O=C(c1nc2c(s1)CCOc1cc(-c3cn[nH]c3)ccc1-2)N1CCC(CO)CC1 | < 1 µM
46 | CC(C)(CO)n1cc(-c2ccc3c(c2)OCCc2sc(-c4ncnn4CC(F)(F)F)nc2-3)cn1 | < 1 µM

Now from value to molecule:

Row | IC50 | SMILES
47 | < 1 µM | FC(F)(F)Cn1ncnc1-c1nc2c(s1)CCOc1cc(-c3cnn(CCN4CCOCC4)c3)ccc1-2
48 | < 1 µM | Fc1ccc(-n2ncnc2-c2cc3c(s2)-c2nc(N4CC5CC4CN5)ccc2OCC3)c(F)c1 (stereo unspecified)
49 | < 1 µM | CC(C)(O)Cn1cc(-c2ccc3c(c2)OCCc2sc(N4C(=O)NC(=O)C4(C)C)nc2-3)cn1
50 | < 1 µM | CN(C)C(=O)N1CCN(C(=O)c2nc3c(s2)CCOc2cc(-c4cn[nH]c4)ccc2-3)CC1
51 | < 1 µM | CC(C)n1ncnc1-c1nc2c(s1)CCOc1cc(C3CN(CC(=O)NCC(C)(C)O)C3)ccc1-2
52 | < 1 µM | CC(C)n1ncnc1-c1nc2c(s1)CCOc1ccc(C#N)cc1-2
53 | < 1 µM | CCN(CC)[C@@H]1CCN(C(=O)c2nc3c(s2)CCOc2cc(-c4cn[nH]c4)ccc2-3)C1
54 | < 1 µM | C[C@@H](O)CNC(=O)c1ccc(Cl)c(N(C)C(=O)c2cc3c(s2)-c2ccc(C(=O)NCCS(C)(=O)=O)cc2OCC3)c1
55 | < 1 µM | CC(C)n1ncnc1-c1nc2c(s1)CCOc1ccc(C3CN(C(=O)OC(C)(C)C)C3)cc1-2
56 | < 1 µM | O=C(c1nc2c(s1)CCOc1cc(-c3cn[nH]c3)ccc1-2)N1CCN(c2ncccn2)CC1
57 | < 1 µM | CC(C)(O)Cn1cc(-c2ccc3c(c2)OCCc2sc(-c4nccn4C4COC4)nc2-3)cn1
58 | < 1 µM | COCC(O)CN1CC(c2ccc3c(c2)OCCc2sc(-c4nc(C)nn4C(C)C)nc2-3)C1 (stereo unspecified)
59 | < 1 µM | CS(=O)(=O)N1CCN(C(=O)c2nc3c(s2)CCOc2cc(-c4cn[nH]c4)ccc2-3)CC1
60 | < 1 µM | Cc1nc(-c2nc3c(s2)CCOc2cc(C4CN(C(=O)[C@H](C)O)C4)ccc2-3)n(C(C)C)n1
61 | < 1 µM | CC(C)NC(=O)CN1CC(c2ccc3c(c2)OCCc2sc(-c4ncnn4C(C)C)nc2-3)C1
62 | < 1 µM | CCNC(=O)NCc1ccc2c(c1)OCCc1sc(-c3nc(C)nn3C(C)C)nc1-2
63 | < 1 µM | CN1CCN(CCNc2ccc3c(n2)-c2sc(-c4ncnn4-c4ccc(F)cc4F)cc2CCO3)CC1
64 | < 1 µM | Nc1ccc(-c2ccc3c(n2)-c2sc(-c4ncnn4-c4ccc(F)cc4F)cc2CCO3)cn1
65 | < 1 µM | CC(C)n1ncnc1-c1nc2c(s1)CCOc1ccc(C(=O)NCCO)cc1-2
66 | < 1 µM | CC(C)N(CCO)C(=O)c1nc2c(s1)CCOc1ccc(-c3cnn(C[C@@H](C)O)c3)cc1-2
67 | < 1 µM | CC(C)n1ncnc1-c1nc2c(s1)CCOc1ccc(-c3cccnc3F)cc1-2
68 | < 1 µM | CC(C)n1ncnc1-c1nc2c(s1)CCOc1ccc(-c3cccn(CC(=O)N(C)C)c3=O)cc1-2
69 | < 1 µM | CC(C)n1ncnc1-c1nc2c(s1)CCOc1cc(-c3cccnc3F)ccc1-2

Row | IC50 | SMILES
70 | < 1 µM | CC(C)n1nc(N)nc1-c1nc2c(s1)CCOc1cc(F)ccc1-2
71 | < 1 µM | Cc1c[nH]c(=O)c(-c2ccc3c(c2)-c2nc(-c4ncnn4C(C)C)sc2CCO3)c1
72 | < 1 µM | CC(=O)N1[C@H](C)CN(c2ccc3c(n2)-c2sc(-c4ncnn4-c4ccc(F)cc4F)cc2CCO3)C[C@@H]1C
73 | < 1 µM | CC(C)n1ncnc1-c1nc2c(s1)CCOc1ccc(-c3cccnc3)cc1-2
74 | < 1 µM | Fc1ccc(-n2ncnc2-c2cc3c(s2)-c2nc(-c4ccc(NCCN5CCOCC5)nc4)ccc2OCC3)c(F)c1
75 | < 1 µM | CC(C)n1ncnc1-c1nc2c(s1)CCOc1cc(C3CN(CCS(C)(=O)=O)C3)ccc1-2
76 | < 1 µM | CC(C)n1cnnc1-c1nc2c(s1)CCOc1cc(CNCC(N)=O)ccc1-2
77 | < 1 µM | CC(C)n1nc(N)nc1-c1cc2c(s1)-c1ccc(-c3cnn(CC(C)(C)O)c3)cc1OCC2
78 | < 1 µM | CC(C)(C(N)=O)n1cc(-c2ccc3c(c2)OCCc2sc(-c4ncnn4CC(F)(F)F)nc2-3)cn1
79 | < 1 µM | CN(C(=O)c1cc2c(s1)-c1ccc(C(=O)NCCS(C)(=O)=O)cc1OCC2)c1cc(C(=O)N2CC(O)C2)ccc1Cl
80 | < 1 µM | Cc1nc(-c2nc3c(s2)CCOc2cc(C4CN(CCS(C)(=O)=O)C4)ccc2-3)n(C(C)C)n1
81 | < 1 µM | COCCNCc1ccc2c(c1)OCCc1sc(-c3nncn3C(C)C)nc1-2
82 | < 1 µM | CC(C)n1ncnc1-c1nc2c(s1)CCOc1cc(C3(O)CCNCC3)ccc1-2
83 | < 1 µM | COCCn1cc(-c2ccc3c(c2)OCCc2sc(-c4ncnn4C(C)C)nc2-3)ccc1=O
84 | < 1 µM | CC(C)n1ncnc1-c1nc2c(s1)CCOc1ccc(-c3cncc(S(C)(=O)=O)c3)cc1-2
85 | < 1 µM | O=C(c1nc2c(s1)CCOc1cc(-c3cn[nH]c3)ccc1-2)N1CCC[C@@H]1Cc1ccccn1
86 | < 1 µM | CN1CCN(C(=O)c2ccc(Cl)c(N(C)C(=O)c3cc4c(s3)-c3ccc(C(=O)NCCS(C)(=O)=O)cc3OCC4)c2)CC1
87 | < 1 µM | CCn1ccc(-c2ccc3c(c2)OCCc2sc(-c4ncnn4C(C)C)nc2-3)cc1=O
88 | < 1 µM | CC(=O)Nc1ccc(-c2ccc3c(n2)-c2sc(-c4ncnn4-c4ccc(F)cc4F)cc2CCO3)cn1
89 | < 1 µM | CN(CCc1ccccc1)C(=O)c1nc2c(s1)CCOc1cc(-c3cn[nH]c3)ccc1-2
90 | < 1 µM | C[C@H](O)CNC(=O)c1ccc(Cl)c(N(C)C(=O)c2cc3c(s2)-c2ccc(C(=O)NCCS(C)(=O)=O)cc2OCC3)c1
91 | < 1 µM | CC(C)n1ncnc1-c1nc2c(s1)CCOc1ccc(-c3ccn(C(C)C)c(=O)c3)cc1-2
